Data published in PubChem BioAssay AID504539 (Broad Institute, 2011).

The compounds below were run on Cell-based prion protein 5' UTR reporter, plate reader (assay: prion protein 5' UTR mRNA inhibitors – cell-based, plate reader, cherry-picked samples, dose response (AID 504539)).

Row | SMILES | AC50
1 | CC1(C)CC[C@]2(C(=O)n3ccnc3)CC[C@]3(C)[C@H](C(=O)C=C4[C@@]5(C)C=C(C#N)C(=O)C(C)(C)[C@@H]5CC[C@]43C)[C@@H]2C1 | 808 nM
2 | COc1ccc(-c2nsc3c(N4CCCCC4)ncnc23)cc1 | 1680 nM
3 | COc1ccc(C2=Nn3c(nnc3-c3ccccc3OC)SC2)cc1OC1CCOC1 (stereo not given) | 3560 nM
4 | CCOc1ccccc1C1CC(=O)Nc2cc3c(cc21)OCCO3 (stereo not given) | 3820 nM
5 | CCc1ccn2cc(-c3cc(-c4ccccc4)no3)nc2c1 | 558 nM
6 | CC(=O)O[C@H]1C(=O)[C@@]2(C)C([C@H](OC(=O)c3ccccc3)[C@]3(O)C[C@H](OC(=O)[C@H](O)[C@@H](NC(=O)c4ccccc4)c4ccccc4)C(C)=C1C3(C)C)[C@]1(OC(C)=O)CO[C@@H]1C[C@H]2O (stereo not given in full) | 160 nM
7 | CC(=O)O[C@H]1[C@H]2O[C@]23[C@@H]2CC[C@]4(O)C[C@@H](O)CC[C@]4(C)C2CC[C@]3(C)[C@H]1c1ccc(=O)oc1 (stereo not given in full) | 120 nM
8 | Nc1ccc2oc(-c3cccc4ccccc34)nc2c1 | 826 nM
9 | Cn1cc(/C=N/n2cnc3scc(-c4ccc(Cl)cc4)c3c2=O)c2ccccc21 | 499 nM
10 | CN(C)c1ccc(Nc2nc(N)c3ccccc3n2)cc1 | 562 nM
11 | CCN1C/C(=C\c2cccc([N+](=O)[O-])c2)C(=O)/C(=C/c2cccc([N+](=O)[O-])c2)C1 | 2350 nM
12 | COc1ccc(-c2cc(-c3cccs3)c(C#N)c(SCC(=O)NCc3ccco3)n2)cc1 | 1530 nM
13 | C=CCn1c(C)cc(C2=NNC(=NCC)SC2)c1C | < 38 nM
14 | Cc1ccc(C(=O)c2cc([N+](=O)[O-])ccc2N2CCCCC2)cc1 | 848 nM
15 | COC(=O)Cc1ccc(NC(=O)c2ccc(C(C)(C)C)cc2)cc1 | 414 nM
16 | S=C(Nc1ccccc1)Nc1ccc(OCc2ccc(Cl)cc2Cl)cc1 | 355 nM
17 | C=CCn1c(C)cc(C2=NNC(=NC(C)(C)C)SC2)c1C | 714 nM
18 | CCC(=O)Nc1cc2nn(-c3ccc(C)cc3)nc2cc1C | 465 nM
19 | C=CCOc1ccc(/C=C2\SC(=S)N(CCC(=O)O)C2=O)cc1 | 963 nM
20 | Nc1ccc(Oc2cccc(Oc3ccc(N)cc3)c2)cc1 | 587 nM

Row | SMILES | AC50
21 | CC(=O)OC1(C)CC(C)C(=O)C(C(O)CC2CC(=O)NC(=O)C2)C1 (stereo not given) | 500 nM
22 | COc1cccc(/C=N/Nc2ccc(C(=O)O)cc2)c1O | 222 nM
23 | CC(=O)c1sc2c(c1OC(=O)c1ccc(Cl)cc1Cl)c(=O)n(-c1ccccc1)c(=S)n2-c1ccccc1 | 452 nM
24 | c1ccc2nc(-c3ccc(N4CCOCC4)cc3)ccc2c1 | 385 nM
25 | CCc1ccn2cc(-c3ccc4c(c3)OCO4)nc2c1 | 384 nM
26 | COc1cc2c(c(OC)c1OC)-c1ccc(SC)c(=O)cc1C(NC(=O)c1ccccc1)CC2 (stereo not given) | < 38 nM
27 | COc1cc2c(c(OC)c1OC)-c1ccc(OC)c(=O)cc1[C@@H](N(C)CC#CCO)CC2 | 235 nM
28 | CCN(CC)c1ccc(C(=C2C=CC(=[N+](CC)CC)C=C2)c2ccccc2)cc1 | 892 nM
29 | CC(=O)OC1C(=O)OCC23CCC4(C)OC4C2OC2CC(OC(=O)C=CC=CC(=O)OCCC1C)C3(C)C21CO1 (stereo not given) | < 38 nM
30 | O=C(CSc1nnc(-c2ccccc2)o1)Nc1ccccc1F | 675 nM
31 | COCCn1c(C)cc(C2=NNC(=NC3CC3)SC2)c1C | < 38 nM
32 | CCCOC(=O)c1[nH]c2c(c1C)C(=O)CC(c1cccs1)C2 (stereo not given) | 132 nM
33 | CC(=Nc1ccccc1)C1=C(O)C(Cc2ccc(O)cc2)NC1=O (stereo not given) | 379 nM
34 | O=C1c2cccc3cc([N+](=O)[O-])cc(c23)C(=O)N1CCN1CCCC1 | 521 nM
35 | CSc1nc(-c2ccccc2)nc(C(Cl)Cl)n1 | 1270 nM
36 | C(=NN1CCCCCC1)c1ccc2ccccc2n1 | < 38 nM
37 | COc1ccccc1C(=O)Nc1nc2ccccc2[nH]1 | 178 nM
38 | CC(=O)OC1CC(OC2C(O)CC(OC3C(O)CC(OC4CCC5(C)C(CCC6C5CC(O)C5(C)C(C7=CC(=O)OC7)CCC65O)C4)OC3C)OC2C)OC(C)C1OC1OC(CO)C(O)C(O)C1O (stereo not given) | 92 nM
39 | COC(=O)C12OCC34C(CC5C(C)=C(O)C(=O)CC5(C)C3C(O)C1O)OC(=O)C(OC(=O)C=C(C)C)C24 (stereo not given) | < 38 nM
40 | COc1cc(SC)ccc1C(=O)Nc1ccc(Br)cn1 | 500 nM
